We go through 14 compounds from ChEMBL document CHEMBL1156292, “Zwittermicin A: synthesis of analogs and structure-activity studies” (2010).

Structures are written as SMILES. Values after ≈ are worked out from the molar mass of the structure shown.

Assay type in all cases: functional
Test [1] relates to Candida albicans. Briefly: Antifungal activity against Candida albicans 96-489 by disk diffusion assay. (In general: A growth-free zone around the sample is the usual read-out of agar diffusion tests.)
The subject of a further test is Nakaseomyces glabratus. In words: Antifungal activity against Candida glabrata by disk diffusion assay.
Test [2] concerns Candida albicans. Briefly: Antifungal activity against Candida albicans ATCC 14503 by disk diffusion assay.
Another test has as its system Pichia kudriavzevii. In words: Antifungal activity against Candida krusei by disk diffusion assay.
Test [3] concerns Candida albicans. Briefly: Antifungal activity against Candida albicans UCDFR1 by disk diffusion assay.
The subject of test [4] is Pectobacterium carotovorum. In words: Antibacterial activity against Erwinia carotovora by disk diffusion assay.
A further test has as its system Phytophthora infestans. Briefly: Antifungal activity against Phytophthora infestans by disk diffusion assay.
The subject of the next test is Erwinia amylovora. In words: Antibacterial activity against Erwinia amylovora by disk diffusion assay.

The MIC is the lowest concentration found to suppress growth. Higher therefore signals a less susceptible organism. On to `N[C@@H](CO)[C@H](O)C[C@@H](O)[C@@H](N)CO`, for which the MIC in the test with Candida albicans [1], with Nakaseomyces glabratus, with Candida albicans [2], in the test on Pichia kudriavzevii and against Candida albicans [3] was greater than 128 µg/mL throughout.
As for `N[C@H](CO)[C@@H](O)C[C@H](O)[C@@H](N)CO`, the MIC against Candida albicans [1], against Nakaseomyces glabratus, in the test on Candida albicans [2], against Pichia kudriavzevii and in the test with Candida albicans [3] was greater than 128 µg/mL in each case.
For the compound `N[C@@H](CO)[C@@H](O)C[C@H](O)[C@@H](N)CO`, the MIC in the test with Candida albicans [1], in the test with Nakaseomyces glabratus, against Candida albicans [2], against Pichia kudriavzevii and against Candida albicans [3] was greater than 128 µg/mL each time.
For `N[C@H](CO)[C@@H](O)C[C@H](O)[C@H](N)CO`, the MIC in test [4] was greater than 128 µg/mL; against Phytophthora infestans it was greater than 32 µg/mL; in the test on Candida albicans [1], greater than 128 µg/mL; in the test with Nakaseomyces glabratus, greater than 128 µg/mL; against Candida albicans [2], greater than 128 µg/mL; in the test with Pichia kudriavzevii, greater than 128 µg/mL. In addition, the MIC in the test on Erwinia amylovora and in the test on Candida albicans [3] was greater than 128 µg/mL each time.
Turning to `NC(=O)NC[C@H](NC(=O)[C@@H](O)[C@H](O)[C@H](N)CO)C(N)=O`, the MIC in test [4] was greater than 128 µg/mL; against Phytophthora infestans, greater than 32 µg/mL; in the test with Candida albicans [1] it was greater than 128 µg/mL; in the test with Nakaseomyces glabratus it was greater than 128 µg/mL; against Candida albicans [2], greater than 128 µg/mL; with Pichia kudriavzevii, greater than 128 µg/mL. The MIC against Erwinia amylovora and with Candida albicans [3] was greater than 128 µg/mL throughout.
On to `NC(=O)NC[C@@H](NC(=O)[C@@H](O)[C@H](O)[C@H](N)CO)C(N)=O`, for which the MIC in test [4] is greater than 128 µg/mL; in the test with Phytophthora infestans, greater than 32 µg/mL; against Candida albicans [1], greater than 128 µg/mL; in the test with Nakaseomyces glabratus it was greater than 128 µg/mL; in the test on Candida albicans [2] it was greater than 128 µg/mL; with Pichia kudriavzevii it was greater than 128 µg/mL. For the same compound, the MIC against Erwinia amylovora and in the test on Candida albicans [3] was greater than 128 µg/mL in each case.
Consider `N[C@@H](CO)[C@H](O)C[C@H](O)[C@@H](N)CO`, for which the MIC with Candida albicans [1], against Nakaseomyces glabratus, against Candida albicans [2], in the test with Pichia kudriavzevii and in the test with Candida albicans [3] was greater than 128 µg/mL in each case.
For the compound `N[C@H](CO)[C@H](O)C[C@H](O)[C@@H](N)CO`, the MIC in the test with Candida albicans [1], against Nakaseomyces glabratus, against Candida albicans [2], with Pichia kudriavzevii and in the test with Candida albicans [3] was greater than 128 µg/mL in each case.
For `NC(=O)NC[C@H](NC(=O)[C@H](O)[C@@H](O)[C@@H](N)[C@@H](O)C[C@H](O)[C@H](N)CO)C(N)=O`, the MIC was 22.2 µg/mL (≈ 56 µM) in test [4]; greater than 32 µg/mL in the test on Phytophthora infestans; 55.7 µg/mL (≈ 141 µM) in the test on Candida albicans [1]; 59.5 µg/mL (≈ 150 µM) against Nakaseomyces glabratus; greater than 128 µg/mL against Candida albicans [2]; greater than 128 µg/mL against Pichia kudriavzevii. The figures for the minimum inhibitory concentration (MIC) in the test on Erwinia amylovora and in the test on Candida albicans [3] were 18.8 µg/mL (≈ 47.4 µM) and greater than 128 µg/mL, respectively.
`NC(=O)NC[C@H](NC(=O)[C@@H](O)[C@H](O)[C@H](N)[C@H](O)C[C@@H](O)[C@@H](N)CO)C(N)=O`: the MIC was greater than 128 µg/mL in test [4]; greater than 32 µg/mL against Phytophthora infestans; greater than 128 µg/mL in the test on Candida albicans [1]; greater than 128 µg/mL with Nakaseomyces glabratus; greater than 128 µg/mL in the test on Candida albicans [2]; greater than 128 µg/mL in the test with Pichia kudriavzevii. Also, the MIC against Erwinia amylovora and against Candida albicans [3] was greater than 128 µg/mL each time.
In the case of `NC(=O)NC[C@H](NC(=O)[C@H](O)[C@@H](O)[C@@H](N)[C@@H](O)C[C@@H](O)[C@@H](N)CO)C(N)=O`, the MIC in test [4] was greater than 128 µg/mL; against Phytophthora infestans, greater than 32 µg/mL; in the test with Candida albicans [1] it was greater than 128 µg/mL; in the test with Nakaseomyces glabratus it was greater than 128 µg/mL; against Candida albicans [2], greater than 128 µg/mL; in the test with Pichia kudriavzevii it was greater than 128 µg/mL. Moreover, the MIC against Erwinia amylovora and in the test with Candida albicans [3] was greater than 128 µg/mL throughout.
With `N[C@H](CO)[C@H](O)C[C@H](O)[C@H](N)CO`, the MIC against Candida albicans [1], with Nakaseomyces glabratus, against Candida albicans [2], in the test with Pichia kudriavzevii and against Candida albicans [3] was greater than 128 µg/mL each time.
As to `NC(=O)NC[C@@H](NC(=O)[C@H](O)[C@@H](O)[C@@H](N)[C@@H](O)C[C@@H](O)[C@@H](N)CO)C(N)=O`, the MIC in test [4] is greater than 128 µg/mL; with Phytophthora infestans, greater than 32 µg/mL; in the test with Candida albicans [1], greater than 128 µg/mL; in the test on Nakaseomyces glabratus it was greater than 128 µg/mL; against Candida albicans [2], greater than 128 µg/mL; with Pichia kudriavzevii it was greater than 128 µg/mL. In addition, the MIC against Erwinia amylovora and in the test on Candida albicans [3] was greater than 128 µg/mL each time.
In the case of `NC(=O)NC[C@@H](NC(=O)[C@@H](O)[C@H](O)[C@H](N)[C@H](O)C[C@@H](O)[C@@H](N)CO)C(N)=O` [ENT-ZWITTERMICIN A], the MIC was greater than 128 µg/mL in test [4]; greater than 32 µg/mL in the test on Phytophthora infestans; greater than 128 µg/mL against Candida albicans [1]; greater than 128 µg/mL against Nakaseomyces glabratus; greater than 128 µg/mL with Candida albicans [2]; greater than 128 µg/mL with Pichia kudriavzevii. Also, the MIC in the test on Erwinia amylovora and with Candida albicans [3] was greater than 128 µg/mL throughout.
